Experimental data from US20060057156A1, “Materials and methods for inductions of immune tolerance” (priority 2002, published 2006).
Like-named read-outs stand apart in the source and are kept apart here.

Legend:
[1] = system: PBMC from EBV seropositive donors; assay type: cell-based, human; conditions: for IL-10 secretion by PBMC: EBV seropositive donors, peptides at 15 μg/ml, ELISA five days after stimulation; for gamma-IFN induction: control peptides of FIG. 6, seropositive donors
[2] = system: PBMC from EBV seropositive donors; assay: Suppression of proliferative and cytokine responses to mitogen, antigens and allergens; assay type: cell-based, human; conditions: three EBV seropositive donors, FIG. 6

| Substance | IL-10 secretion by PBMC [1] | effect on proliferative and gamma-IFN responses against recall antigen (PPD) [2] | also measured |
| --- | --- | --- | --- |
| FLGIVLFIFGCLLVLGIWIY [P22] | IL-10 inducing | inhibit proliferative responses |  |
| HDPLPQDPDNTDDNGPQDPD [P56] |  |  | gamma-IFN induction [1]: gamma-IFN inducing |
| ILIIFIFRRDLLCPLGALCI [P14] | shown to induce IL-10 |  |  |
| LFIFGCLLVLGIWIYLLEML [P23] | IL-10 inducing | inhibit proliferative responses |  |
| LILLIIALYLQQNWWTLLVD [P31] | IL-10 inducing | inhibit proliferative responses |  |
| LLFWLYIVMSDWTGGALLVL [P8] | shown to induce IL-10 |  |  |
| LLLLALLFWLYIVMSDWTGG [P7] | IL-10 inducing | inhibit proliferative responses | IL-10 secretion by PBMC ([1]; listed as peptide 7): one of many effective Tr1 IL-10 inducers |
| LLLMITLLLIALWNLHGQAL [P18] | IL-10 inducing | inhibit proliferative responses |  |
| LLWLLLFLAILIWMYYHGQR [P35] | IL-10 inducing | inhibit proliferative responses |  |
| PRGPPLSSSLGLALLLLLLA [P4] | IL-10 inducing | inhibit proliferative responses | percentage of EBV seropositive donors whose PBMC responded with IL-10 ([1]; 20 seropositive donors, peptide 15 μg/ml): 80% |
| QQNWWTLLVDLLWLLLFLAI [P33] |  |  | gamma-IFN induction [1]: gamma-IFN inducing |
| TIWQLLAFFLAFFLDLILLY [P28] |  |  | gamma-IFN induction [1]: gamma-IFN inducing |
| concanavalin A [Con A, reference compound] |  |  | response pattern to control mitogen / recall antigen ([1]; regardless of EBV serological status): induced responses dominated by proliferation and γ-IFN production |
